{"source": "patent US20240190993A1", "about": "“NEW METHOD TO IMPROVE THE ANTI-TUMORAL ACTIVITY OF MACROPHAGES” (INSERM (INSTITUT NATIONAL DE LA SANTÉ ET DE LA RECHERCHE …, priority 2021, published 2024)", "key": {"[1]": {"tested_on": "CD47", "assay": "CD47 cell-surface expression in NXS2 cells in vitro, flow cytometry", "type": "cell-based, mouse", "conditions": "72 hours incubation, FIG. 2A-C", "method": "(§1) FIG. 2. Both O-acetyl GD2-specific monoclonal antibody 8B6 and 13-cis-RA exposures induce CD47 phagocytosis checkpoint up-regulation in NB cells in vitro. The NB cells IMR5, LAN1 and NXS2 were respectively incubated for 72 hours with (A) 13-cis-RA, (B) mAb 8B6, and (C) 13-cis-RA plus mAb 8B6, as indicated. After incubation, CD47 cell surface expression was analyzed by flow cytometry analysis. […] Data are presented as the mean±SEM ([…]; **p<0.01; ***p<0.001; Mann-Whitney test).\n(§2) We next interrogate the impact of mAb 8B6, used alone or in combination with 13-cis-RA, on CD47 cell-surface expression in human NB cell line. After 72 hours incubation, cells were harvested, stained with a CD47-specific mAb and then subjected to flow cytometry analysis. […] The tested treatments had little impact on CD47 NXS2 cell-surface expression (FIG. 2A-C)."}, "[2]": {"tested_on": "CD47", "assay": "CD47 cell-surface expression in human NB cell lines in vitro, flow cytometry", "type": "cell-based", "conditions": "human NB cell lines IMR5, LAN1; 72 hours incubation; FIG. 2A-C", "method": "as §1, §2"}, "[3]": {"tested_on": "NXS2 cells", "assay": "syngeneic model of NXS2 NB liver metastasis in A/J mice, liver weight", "type": "in vivo, mouse", "method": "Depletion of macrophages in 8-week-old A/J mice was performed clodronate liposomes or liposomes obtained from Liposoma (Liposoma BV, Amsterdam, the Netherlands) according to the manufacturer's instructions. Mice were given either clodronate liposomes or liposome i.p. 4 days before tumor cell injection and thereafter on days 0, 3, 7, 10, 14, 17, and 21 post-tumor cell inoculation. The effectiveness of macrophage depletion was determined by flow cytometry analysis of CD45+F4/80+CD11b+Ly6G-Ly6Clow-int cells among splenocytes from the treated animals.\nNXS2 Cells (2.5×10^5 in 100 μL of PBS) were transplanted into syngeneic 8-weeks old female A/J mice (Harlan Laboratories, Gannat, France) i.v., to induces liver metastasis 6. Mice received either mAb 8B6 (25 μg, i.v.) or mAb P84 (200 μg, i.p.) twice a week for 3 consecutive weeks beginning 3 days after tumor cell injection. Isotretinoin was given orally diluted in Ora-Plus® at 10 mg/kg daily for 5 consecutive days, starting week 3 after tumor cell challenge. Mice were euthanized on day 27 post-tumor challenge. Anti-tumor efficacy was evaluated by liver weight of the fresh specimen as described previously 6."}}, "note": "“Also recorded” adds a separate entry of the source."}
{"smiles": "CC1=C(/C=C/C(C)=C/C=C/C(C)=C\\C(=O)O)C(C)(C)CCC1", "note": "[13-cis-RA, 13-cis-retinoic acid]", "values": [{"measurement": "CD47 cell-surface expression", "setting": "[1]", "value": "induces up-regulation of CD47"}, {"measurement": "CD47 cell-surface expression", "setting": "[2]", "value": "induces up-regulation of CD47; also recorded: induced CD47 up-regulation"}, {"measurement": "liver weight", "setting": "[3]; FIG. 1B, day 27 after i.v. NXS2 inoculation, 8 mice/group, 8B6 i.v. days 3,7,10,14,17,21, 13-cis-RA 10 mg/kg per os", "value": "1.19 ± 0.0", "unit": "g"}, {"measurement": "liver weight", "setting": "[3]; FIG. 4B, day 27, 8B6 25 μg i.v., P84 i.p. days 3,7,10,14,17,21, 13-cis-RA 10 mg/kg per os days 17-21", "value": "1.95 ± 0.12", "unit": "g"}]}
